Reference: EPA's CvTdb concentration-time database

What was measured:
[1] = test system: Rat; assay: concentration in plasma after dosing; settings: 4 h; dosed: Gemfibrozil; 100 mg/kg; oral; Male; Sprague-Dawley
[2] = test system: Rat; assay: concentration in plasma after dosing; settings: 15 h; dosed: Gemfibrozil; 4.29 mg/kg; oral; Male; Sprague-Dawley
[3] = test system: Rat; assay: concentration in plasma after dosing; settings: 5 min; dosed: Gemfibrozil; 50 mg/kg; oral; Male; Sprague-Dawley
[4] = test system: Rat; assay: concentration in plasma after dosing; settings: 0.5 h; dosed: Gemfibrozil; 50 mg/kg; oral; Male; Sprague-Dawley
[5] = test system: Rat; assay: concentration in plasma after dosing; settings: 15 h; dosed: Gemfibrozil; 50 mg/kg; oral; Male; Sprague-Dawley
[6] = test system: Rat; assay: concentration in brain after dosing; settings: 0.5 h; dosed: 2-Methyltetrahydrofuran; 40 mg/kg; iv; Female; Harlan Sprague Dawley
[7] = test system: Rat; assay: concentration in brain after dosing; settings: 4 h; dosed: 2-Methyltetrahydrofuran; 40 mg/kg; iv; Female; Harlan Sprague Dawley
[8] = test system: Rat; assay: concentration in plasma after dosing; settings: 0.75 h; dosed: 2-Methyltetrahydrofuran; 40 mg/kg; iv; Male; Harlan Sprague Dawley
[9] = test system: Rat; assay: concentration in plasma after dosing; settings: 0.2 h; dosed: 2-Methyltetrahydrofuran; 40 mg/kg; iv; Male; Harlan Sprague Dawley
[10] = test system: Rat; assay: concentration in plasma after dosing; settings: 0.5 h; dosed: 2-Methyltetrahydrofuran; 40 mg/kg; iv; Male; Harlan Sprague Dawley
[11] = test system: Rat; assay: concentration in plasma after dosing; settings: 0.5 h; dosed: 2-Methyltetrahydrofuran; 40 mg/kg; iv; Female; Harlan Sprague Dawley
[12] = test system: rat; assay: concentration in blood after dosing; negative times count back from the end of exposure; settings: dosed: trichloroethylene, 50 ppm, inhalation, duration: 4 hr, male, Sprague Dawley
[13] = test system: Rat; assay: concentration in kidney after dosing; settings: 24 h; dosed: Perfluorooctane Sulfonate; 2 mg/kg; oral; Female; Harlan Sprague Dawley
[14] = test system: Rat; assay: concentration in kidney after dosing; settings: 1848 h; dosed: Perfluorooctane Sulfonate; 2 mg/kg; oral; Female; Harlan Sprague Dawley
[15] = test system: Rat; assay: concentration in plasma after dosing; settings: 864 h; dosed: Perfluorooctane Sulfonate; 2 mg/kg; oral; Female; Harlan Sprague Dawley
[16] = test system: Rat; assay: concentration in kidney after dosing; settings: 1848 h; dosed: Perfluorooctane Sulfonate; 2 mg/kg; oral; Female; Harlan Sprague Dawley; remark: listed apart in the source
[17] = test system: Rat; assay: concentration in plasma after dosing; settings: dosed: Perfluorooctane Sulfonate, 2 mg/kg, iv, Female, F344
[18] = test system: Rat; assay: concentration in kidney after dosing; settings: 6 h; dosed: Perfluorooctane Sulfonate; 20 mg/kg; oral; Female; F344
[19] = test system: Rat; assay: concentration in liver after dosing; settings: 1848 h; dosed: Perfluorooctane Sulfonate; 2 mg/kg; oral; Female; Harlan Sprague Dawley
[20] = test system: Rat; assay: concentration in kidney after dosing; settings: 864 h; dosed: Perfluorooctane Sulfonate; 2 mg/kg; oral; Female; Harlan Sprague Dawley
[21] = test system: Rat; assay: concentration in brain after dosing; settings: 24 h; dosed: Perfluorooctane Sulfonate; 2 mg/kg; oral; Female; Harlan Sprague Dawley
[22] = test system: Rat; assay: concentration in kidney after dosing; settings: 3360 h; dosed: Perfluorooctane Sulfonate; 2 mg/kg; oral; Female; Harlan Sprague Dawley
[23] = test system: Rat; assay: concentration in liver after dosing; settings: 3360 h; dosed: Perfluorooctane Sulfonate; 20 mg/kg; oral; Male; Harlan Sprague Dawley
[24] = test system: Rat; assay: concentration in kidney after dosing; settings: 1848 h; dosed: Perfluorooctane Sulfonate; 2 mg/kg; oral; Female; Harlan Sprague Dawley; remark: listed apart in the source
[25] = test system: Rat; assay: concentration in liver after dosing; settings: 24 h; dosed: Perfluorooctane Sulfonate; 2 mg/kg; oral; Female; Harlan Sprague Dawley
[26] = test system: Rat; assay: concentration in plasma after dosing; settings: 0.75 h; dosed: Perfluorohexanoic Acid; 80 mg/kg; oral; Male; Harlan Sprague Dawley
[27] = test system: Rat; assay: concentration in plasma after dosing; settings: dosed: Perfluorohexanoic Acid, 40 mg/kg, iv, Male, F344
[28] = test system: Rat; assay: concentration in kidney after dosing; settings: 1 h; dosed: Perfluorohexanoic Acid; 80 mg/kg; oral; Male; Harlan Sprague Dawley
[29] = test system: Rat; assay: concentration in liver after dosing; settings: 6 h; dosed: Perfluorohexanoic Acid; 80 mg/kg; oral; Female; Harlan Sprague Dawley
[30] = test system: Rat; assay: concentration in plasma after dosing; settings: dosed: Perfluorohexanoic Acid, 40 mg/kg, oral, Male, Harlan Sprague Dawley
[31] = test system: Rat; assay: concentration in plasma after dosing; settings: dosed: Perfluorohexanoic Acid, 80 mg/kg, oral, Male, Harlan Sprague Dawley
[32] = test system: Rat; assay: concentration in plasma after dosing; settings: 1 h; dosed: Perfluorohexanoic Acid; 40 mg/kg; iv; Female; Harlan Sprague-Dawley
[33] = test system: Rat; assay: concentration in plasma after dosing; settings: dosed: 678-39-7, 12 mg/kg, iv, Male, F344
[34] = test system: Rat; assay: concentration in brain after dosing; settings: 3 h; dosed: Fluorotelomer alcohol 8+2; 80 mg/kg; oral; Female; Harlan Sprague Dawley
[35] = test system: Rat; assay: concentration in plasma after dosing; settings: dosed: 678-39-7, 12 mg/kg, iv, Male, F344; remark: listed apart in the source
[36] = test system: Rat; assay: concentration in kidney after dosing; settings: 3 h; dosed: Fluorotelomer alcohol 8+2; 24 mg/kg; oral; Male; Harlan Sprague Dawley
[37] = test system: Rat; assay: concentration in plasma after dosing; settings: 3 h; dosed: 678-39-7; 40 mg/kg; iv; Male; F344
[38] = test system: Rat; assay: concentration in kidney after dosing; settings: 0.5 h; dosed: Fluorotelomer alcohol 8+2; 80 mg/kg; oral; Female; Harlan Sprague Dawley
[39] = test system: Rat; assay: concentration in liver after dosing; settings: 0.5 h; dosed: Fluorotelomer alcohol 8+2; 80 mg/kg; oral; Female; Harlan Sprague Dawley

Cc1ccc(C)c(OCCCC(C)(C)C(=O)O)c1 [Gemfibrozil]
Settings	concentration in plasma [ng/mL]
[1]	6150
[2]	131
[3]	2350
[4]	4640
[5]	928

CC1CCCO1 (stereo not given) [2-Methyltetrahydrofuran]
Settings	concentration in brain [ng/mL]	concentration in plasma [ng/mL]
[6]	12700	–
[7]	185	–
[8]	–	31600
[9]	–	36100
[10]	–	25600
[11]	–	27200

ClC=C(Cl)Cl [trichloroethylene]
[12]
Settings	concentration in blood [ng/mL]
0.2317 h	2420
0.4119 h	1510
0.9932 h	820
1.803 h	370
3.975 h	289

[12], during exposure
Settings	concentration in blood [ng/mL]
-6 s	2790
-3.423 h	1890
-3.024 h	1360
-1.999 h	2680
-1.012 h	2670

O=S(=O)([O-])C(F)(F)C(F)(F)C(F)(F)C(F)(F)C(F)(F)C(F)(F)C(F)(F)C(F)(F)F [Perfluorooctane Sulfonate]
Settings	concentration in brain [ng/g]	concentration in kidney [ng/g]	concentration in liver [ng/g]	concentration in plasma [ng/mL]
[13]	–	4940	–	–
[14]	–	980	–	–
[15]	–	–	–	1480
[16]	–	2040	–	–
[18]	–	152000	–	–
[19]	–	–	5940	–
[20]	–	3420	–	–
[21]	851	–	–	–
[22]	–	1070	–	–
[23]	–	–	23900	–
[24]	–	860	–	–
[25]	–	–	29400	–

[17]
Settings	concentration in plasma [ng/mL]
5 min	5510
24 h	4250
1704 h	232

O=C(O)C(F)(F)C(F)(F)C(F)(F)C(F)(F)C(F)(F)F [Perfluorohexanoic Acid]
Settings	concentration in kidney [ng/g]	concentration in liver [ng/g]	concentration in plasma [ng/mL]
[26]	–	–	129000
[28]	86000	–	–
[29]	–	6260	–
[32]	–	–	1240

Settings	concentration in plasma [ng/mL]
[27], 3 h	3900
[27], 5 min	23100
[30], 0.25 h	54000
[30], 6 h	31300
[31], 0.25 h	91200
[31], 24 h	239

O=C(O)CCC(F)(F)C(F)(F)C(F)(F)C(F)(F)C(F)(F)C(F)(F)C(F)(F)F [Fluorotelomer acid 7+3]
concentration in plasma [ng/mL]
Settings	0.5 h	0.75 h	9 h	12 h
[33]	–	365	–	74.1
[35]	167	–	164	–

Settings	concentration in brain [ng/g]	concentration in kidney [ng/g]	concentration in liver [ng/g]	concentration in plasma [ng/mL]
[34]	1580	–	–	–
[36]	–	1450	–	–
[37]	–	–	–	2370
[38]	–	357	–	–
[39]	–	–	2020	–
